The source of these data is the OligoGym collection.

Series [1] addresses SNHG14. The following applies: ASO.
In series [2] the target is SOD1. The following applies: ASO.

Several values for one entry are separate records, joined by “and”; a condition that tells them apart may be missing. Equal values may be shown once. After the bases stand the sugars from the 5' end (letter, count) and the backbone: PS all phosphorothioate, else s phosphorothioate and o phosphodiester by linkage. Methylation of C is not given here. e = 2'-O-(2-methoxyethyl) (MOE); l = locked nucleic acid (LNA); k = constrained ethyl (cEt); d = 2'-deoxy (DNA)

The sequence “TCTTTCCATTTATTTCCAT (sugars l2 d14 l3, PS)” yielded a target mRNA inhibition in series [1] (Human Neuronal Cell, 7.5 µM) of 43%.

Consider “TTTTTTCTTACTATCTTCAA (sugars lldlldlddddddddlddll, PS)”, for which the target mRNA inhibition in series [1] (Human Neuronal Cell, 7.5 µM) amounted to 58%.

On to CATTTACAAGCACATA (sugars l2 d10 l4, PS), for which the target mRNA inhibition turned out to be 43% in series [1] (Human Neuronal Cell, 0.2 µM) and 37% in series [1] (Human Neuronal Cell, 1 µM).

As to CTTGACTACACATCTT (sugars l3 d10 l3, PS), the target mRNA inhibition in series [1] (Human Neuronal Cell, 0.2 µM) amounted to 50%; in series [1] (Human Neuronal Cell, 1 µM), 54%.

Take “ACATCTCATACTTGCTT (sugars l2 d13 l2, PS)”: the target mRNA inhibition in series [1] (Human Neuronal Cell, 0.2 µM) was 1%; in series [1] (Human Neuronal Cell, 1 µM), 8%; in series [1] (Human Neuronal Cell, 5 µM) it was 7%; in series [1] (Mouse Primary Neuronal Cell, 0.005 µM), 90.7%.

In the case of “ATTTCATATTACTAACTA (sugars l2 d12 l4, PS)”, the target mRNA inhibition is 3% in series [1] (Human Neuronal Cell, 0.2 µM) and 20% in series [1] (Human Neuronal Cell, 1 µM).

In series [1] (Human Neuronal Cell, 7.5 µM), “AAAATCTCAACTACCATTTT (sugars llddllddddddddddldll, PS)” registered a target mRNA inhibition of 23%.

Turning to CCCAAATAAGCAAACT (sugars l4 d10 l2, PS), the target mRNA inhibition in series [1] (Human Neuronal Cell, 0.2 µM) was 35%; in series [1] (Human Neuronal Cell, 1 µM) it was 43%.

In series [1] (Human Neuronal Cell, 7.5 µM), “TTTTTTTCTTACTATCTTCA (sugars l1 d2 l2 d13 l2, PS)” showed a target mRNA inhibition of 43%.

In series [1] (Human Neuronal Cell, 7.5 µM), “AGTTCTACTATACTTTC (sugars l3 d10 l1 d1 l2, PS)” showed a target mRNA inhibition of 59%.

Consider “TTTATCTATTTAATTTACA (sugars l4 d13 l2, PS)”, for which the target mRNA inhibition was 7% in series [1] (Human Neuronal Cell, 0.2 µM) and 6% in series [1] (Human Neuronal Cell, 1 µM).

CCTCAATACTCTACTT (sugars l4 d10 l2, PS): the target mRNA inhibition stood at 43% in series [1] (Human Neuronal Cell, 0.2 µM) and 54% in series [1] (Human Neuronal Cell, 1 µM).

Sequence “ACTCTGCAATACACCAA (sugars l4 d8 l1 d2 l2, PS)” showed a target mRNA inhibition in series [1] (Human Neuronal Cell, 7.5 µM) of 57%.

“TTTTTTTCTTACTATCTTCA (sugars ldlddddddddddlddddll, PS)” registered a target mRNA inhibition in series [1] (Human Neuronal Cell, 7.5 µM) of 46%.

TTATTAACCACCTTAA (sugars l3 d10 l3, PS): the target mRNA inhibition came to 21% in series [1] (Human Neuronal Cell, 0.2 µM) and 49% in series [1] (Human Neuronal Cell, 1 µM).

Consider CTATTCTCAGTATTAT (sugars l3 d10 l3, PS), for which the target mRNA inhibition in series [1] (Human Neuronal Cell, 0.2 µM) came to 19%; in series [1] (Human Neuronal Cell, 1 µM) it was 13%.

Consider “TTTACATTCCCATCATC (sugars l2 d11 l4, PS)”, for which the target mRNA inhibition in series [1] (Human Neuronal Cell, 0.2 µM) amounted to 57%; in series [1] (Human Neuronal Cell, 1 µM), 66%.

Regarding “GTCATCTAACTTCTTAC (sugars l3 d11 l3, PS)”, the target mRNA inhibition amounted to 45% in series [1] (Human Neuronal Cell, 0.2 µM) and 46% in series [1] (Human Neuronal Cell, 1 µM).

Regarding AAACTGTACACCTACT (sugars l2 d10 l4, PS), the target mRNA inhibition is 31% in series [1] (Human Neuronal Cell, 0.2 µM) and 44% in series [1] (Human Neuronal Cell, 1 µM).

As for “TATACCTTTCTTTAACCCTT (sugars llddldldddddddddddll, PS)”, in series [1] (Human Neuronal Cell, 7.5 µM), the target mRNA inhibition was 60%.

As for “CCAATTACACCACAAGC (sugars e2 k2 d9 k2 e2, PS)”, the target mRNA inhibition in series [2] (HepG2, 0.1875 µM) is 7%; in series [2] (HepG2, 0.75 µM), 32%; in series [2] (HepG2, 3 µM), 77%; in series [2] (HepG2, 4 µM), 73%; in series [2] (HepG2, 12 µM), 96%.

The sequence “CTGCTTTTTCATGGACC (sugars e3 k2 d7 k2 e3, PS)” gave a target mRNA inhibition in series [2] (HepG2, 3 µM) of 65%.

For “TCTGCTCGAAATTGATG (sugars e3 k2 d7 k2 e3, PS)”, the target mRNA inhibition in series [2] (HepG2, 3 µM) was 34%.

Regarding “ATGAACATGGAATCCAT (sugars e3 k2 d7 k2 e3, PS)”, the target mRNA inhibition in series [2] (HepG2, 3 µM) came to 8%.

For the sequence “ACTACATCCAAGGGAAT (sugars e3 k2 d7 k2 e3, PS)”, in series [2] (HepG2, 3 µM), the target mRNA inhibition was found to be 7%.

In turn, “TTTCCTTCTGCTCGAAA (sugars e3 k2 d7 k2 e3, PS)” had a target mRNA inhibition in series [2] (HepG2, 3 µM) of 6%.

“CGCTAGGCCACGCCGAGGTC (sugars e5 d10 e5, PS)” displayed a target mRNA inhibition in series [2] (HepG2, 4 µM) of 52%.

For “TCTTTTAATAGCCTCAT (sugars e2 k2 d8 k2 e3, PS)”, the target mRNA inhibition in series [2] (HepG2, 5 µM) came to 52%.

“TAACAGATGAGTTAAGG (sugars e2 k2 d9 k2 e2, PS)”: the target mRNA inhibition in series [2] (HepG2, 0.1875 µM) stood at 21%; in series [2] (HepG2, 0.75 µM), 64%; in series [2] (HepG2, 3 µM) it was 85%; in series [2] (HepG2, 4 µM), 80%; in series [2] (HepG2, 12 µM) it was 96%.

With “AAGTCTGGCAAAATACA (sugars e3 k2 d7 k2 e3, PS)”, in series [2] (HepG2, 3 µM), the target mRNA inhibition came to 10%.

In series [2] (HepG2, 4 µM), “GGGCGATCCCAATTACA (sugars e2 k2 d8 k2 e3, PS)” came in with a target mRNA inhibition of 30%.

Consider “AAACTATACAAATCTTC (sugars e2 k2 d8 k2 e3, PS)”, for which the target mRNA inhibition in series [2] (HepG2, 5 µM) was 55%.

On to “GTGTTTAATGTTTATCAGGA (sugars e5 d10 e5, PS)”, for which the target mRNA inhibition in series [2] (HepG2, 0.1875 µM) was determined as 18%; in series [2] (HepG2, 0.75 µM), 45%; in series [2] (HepG2, 3 µM), 74%; in series [2] (HepG2, 5 µM) it was 73%; in series [2] (HepG2, 12 µM), 92%.

“TGCAACGGAAACCCCAGACG (sugars e5 d10 e5, PS)” had a target mRNA inhibition in series [2] (HepG2, 4 µM) of 21%.

Take “GCCTCAGACTACATCCA (sugars e2 k2 d9 k2 e2, PS)”: the target mRNA inhibition in series [2] (HepG2, 0.1875 µM) came out at 34%; in series [2] (HepG2, 0.75 µM), 59%; in series [2] (HepG2, 3 µM), 87%; in series [2] (HepG2, 4 µM) it was 82%; in series [2] (HepG2, 12 µM), 95%.

In series [2] (HepG2, 5 µM), “TGATCATAAATCAGTTT (sugars e2 k2 d8 k2 e3, PS)” registered a target mRNA inhibition of 49%.

In series [2] (HepG2, 5 µM), “TCTTTTAATAGCCTCAT (sugars e2 k2 d9 k2 e2, PS)” registered a target mRNA inhibition of 56%.

Turning to “CAGTTTCTCACTACAGGTAC (sugars e5 d10 e5, PS)”, the target mRNA inhibition in series [2] (HepG2, 5 µM) came out at 25%.

In turn, “ACACCACAAGCCAAACGACT (sugars e5 d10 e5, PS)” registered a target mRNA inhibition in series [2] (HepG2, 5 µM) of 49%.

Sequence “TCTACAGCTAGCAGGAT (sugars e3 k2 d7 k2 e3, PS)” displayed a target mRNA inhibition in series [2] (HepG2, 3 µM) of 51%.

Sequence “GCCATACAGGGTTTTTA (sugars e3 k2 d7 k2 e3, PS)” came in with a target mRNA inhibition in series [2] (HepG2, 3 µM) of 11%.

As to “CAGGATACATTTCTACA (sugars e2 k2 d9 k2 e2, PS)”, the target mRNA inhibition in series [2] (HepG2, 0.1875 µM) was 38%; in series [2] (HepG2, 0.75 µM), 71%; in series [2] (HepG2, 3 µM), 89%; in series [2] (HepG2, 4 µM), 85% and 86%; in series [2] (HepG2, 12 µM), 91% and 97%.

As for “TGTGATTTAAGTCTGGCAAA (sugars e5 d10 e5, PS)”, the target mRNA inhibition in series [2] (HepG2, 5 µM) stood at 34%.

On to “AACTATACAAATCTTCC (sugars e2 k2 d9 k2 e2, PS)”, for which the target mRNA inhibition in series [2] (HepG2, 5 µM) turned out to be 63%.

In the case of “TTGCCCAAGTCTCCAACATG (sugars e5 d10 e5, PS)”, in series [2] (HepG2, 5 µM), the target mRNA inhibition was 41% and 33%.

Take “AATTACACCACAAGCCA (sugars e3 k2 d7 k2 e3, PS)”: the target mRNA inhibition in series [2] (HepG2, 3 µM) was 21%.

For “AGTGAGATCACAGAATCTTC (sugars e5 d10 e5, PS)”, the target mRNA inhibition in series [2] (HepG2, 5 µM) came out at 30%.

Sequence “CACACCTTCACTGGTCC (sugars e3 k2 d7 k2 e3, PS)” gave a target mRNA inhibition in series [2] (HepG2, 3 µM) of 12%.

“AAATTGATGATGCCCTGCAC (sugars e5 d10 e5, PS)” yielded a target mRNA inhibition in series [2] (HepG2, 4 µM) of 14%.

Consider “CGCCCACTCTGGCCCCA (sugars e3 k2 d7 k2 e3, PS)”, for which the target mRNA inhibition in series [2] (HepG2, 3 µM) stood at 14%.

With “CTGCACTGGGCCGTCGCCCT (sugars e5 d10 e5, PS)”, the target mRNA inhibition in series [2] (HepG2, 4 µM) turned out to be 24%.

Regarding “CACTTTTAAGATTACAG (sugars e2 k2 d9 k2 e2, PS)”, the target mRNA inhibition in series [2] (HepG2, 5 µM) was found to be 49%.
